System: apyrase
Assay: Screen for apyrase inhibitors (Method 1, in vitro phosphate-release absorbance assay)
Type: biochemical
Conditions: inhibitor conc at 1 mM stock, 1 hr room temperature, absorbance 630 nm; rounded average of two assay results
Procedure, shortened: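 Phosphate-release colorimetric assay (Windsor method) in 60 mM Hepes, 3 mM MgCl2, 3 mM CaCl2, 3 mM ATP, pH 6.5, with compound or DMSO control added. Released phosphate developed with ammonium molybdate and ascorbic acid/TCA, then stopped with citrate/acetic acid.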

% Inhibition of Apyrase	SMILES
56%	N#Cc1cccc(NC(=O)c2ccc(NS(=O)(=O)c3ccc(Br)cc3)cc2)c1 [I-928, 4-((4-bromophenyl)sulfonamido)-N-(3-cyanophenyl)benzamide]
55%	N#Cc1cccc(NC(=O)c2ccc(NS(=O)(=O)c3ccc(F)c(F)c3)cc2)c1 [I-932, N-(3-cyanophenyl)-4-((3,4-difluorophenyl)sulfonamido)benzamide]
53%	COc1ccccc1NC(=O)c1ccc(NS(=O)(=O)c2ccc(C(F)(F)F)cc2)cc1 [I-934, N-(2-methoxyphenyl)-4-((4-(trifluoromethyl)phenyl)sulfonamido) benzamide]
52%	Cc1cccc(NC(=O)c2ccc(NS(=O)(=O)c3ccc(F)cc3)cc2)c1C [I-937, N-(2,3-dimethylphenyl)-4-((4-fluorophenyl)sulfonamido)benzamide]
50%	O=C(Nc1cccc(Br)c1)c1ccc(NS(=O)(=O)c2cccc([N+](=O)[O-])c2)cc1 [I-940, N-(3-bromophenyl)-4-((3-nitrophenyl)sulfonamido)benzamide]
49%	COc1ccccc1NC(=O)c1ccc(NS(=O)(=O)c2ccc(C#N)cc2)cc1 [I-942, 4-((4-cyanophenyl)sulfonamido)-N-(2-methoxyphenyl)benzamide]
48%	COc1ccccc1NC(=O)c1ccc(NS(=O)(=O)c2cccc(Cl)c2Cl)cc1 [I-943, 4-((2,3-dichlorophenyl)sulfonamido)-N-(2-methoxyphenyl)benzamide]
47%	COc1ccccc1NC(=O)c1ccc(NS(=O)(=O)c2cccc(C#N)c2)cc1 [I-944, 4-((3-cyanophenyl)sulfonamido)-N-(2-methoxyphenyl)benzamide]
25%	Cc1ccc(C)c(S(=O)(=O)Nc2ccc(C(=O)Nc3cccc(C#N)c3)cc2)c1 [I-954, N-(3-cyanophenyl)-4-((2,5-dimethylphenyl)sulfonamido)benzamide]
23%	Cc1ccc(F)c(NC(=O)c2ccc(NS(=O)(=O)c3ccccc3)cc2)c1 [I-955, N-(2-fluoro-5-methylphenyl)-4-(phenylsulfonamido)benzamide]
20%	N#Cc1cccc(NC(=O)c2ccc(NS(=O)(=O)c3ccc(F)cc3)cc2)c1 [I-957, N-(3-cyanophenyl)-4-((4-fluorophenyl)sulfonamido)benzamide]
17%	Cc1cc(F)ccc1S(=O)(=O)Nc1ccc(C(=O)Nc2cccc(C#N)c2)cc1 [I-959, N-(3-cyanophenyl)-4-((4-fluoro-2-methylphenyl)sulfonamido)benzamide]
14%	O=C(Nc1ccccc1OC(F)F)c1ccc(NS(=O)(=O)c2ccccc2)cc1 [I-960, N-(2-(difluoromethoxy)phenyl)-4-(phenylsulfonamido)benzamide]
11%	N#Cc1cccc(NC(=O)c2ccc(NS(=O)(=O)c3ccc4c(c3)OCCO4)cc2)c1 [I-962, N-(3-cyanophenyl)-4-((2,3-dihydrobenzo[b][1,4]dioxine)-6-sulfonamido)benzamide]

Second part, the molecule before the results:

SMILES	% Inhibition of Apyrase
Cc1ccc(S(=O)(=O)N(C)c2ccc(C(=O)Nc3cc([N+](=O)[O-])ccc3C)cc2)cc1 [I-925, 4-((N,4-dimethylphenyl)sulfonamido)-N-(2-methyl-5-nitrophenyl)benzamide]	56%
O=C(Nc1ccc(Cl)c(Cl)c1)c1ccc(NS(=O)(=O)c2ccc(F)c(F)c2)cc1 [I-926, N-(3,4-dichlorophenyl)-4-((3,4-difluorophenyl)sulfonamido)benzamide]	56%
Cc1ccc(S(=O)(=O)Nc2ccc(C(=O)Nc3ccc(F)cc3)cc2)cc1C [I-927, 4-((3,4-dimethylphenyl)sulfonamido)-N-(4-fluorophenyl)benzamide]	56%
Cc1ccc(C)c(S(=O)(=O)Nc2ccc(C(=O)Nc3ccc4c(c3)OCO4)cc2)c1 [I-929, N-(benzo[d][1,3]dioxol-5-yl)-4-((2,5-dimethylphenyl)sulfonamido)benzamide]	55%
O=C(c1ccc(NS(=O)(=O)c2ccc(Cl)c([N+](=O)[O-])c2)cc1)N1CCCc2ccccc21 [I-930, 4-chloro-3-nitro-N-(4-(1,2,3,4-tetrahydroquinoline-1-carbonyl)phenyl)benzenesulfonamide]	55%
Cc1cc(C)cc(NC(=O)c2ccc(NS(=O)(=O)c3ccc(F)c(Cl)c3)cc2)c1 [I-931, 4-((3-chloro-4-fluorophenyl)sulfonamido)-N-(3,5-dimethylphenyl)benzamide]	55%
Cc1cc(Br)ccc1NC(=O)c1ccc(NS(=O)(=O)c2ccc(F)cc2)cc1 [I-933, N-(4-bromo-2-methylphenyl)-4-((4-fluorophenyl)sulfonamido)benzamide]	53%
O=C(Nc1ccc2c(c1)OCO2)c1ccc(NS(=O)(=O)c2ccc(Br)cc2)cc1 [I-935, N-(benzo[d][1,3]dioxol-5-yl)-4-((4-bromophenyl)sulfonamido)benzamide]	52%
Cc1cccc(NC(=O)c2ccc(NS(=O)(=O)c3ccc(Br)cc3)cc2)c1 [I-936, 4-((4-bromophenyl)sulfonamido)-N-(m-tolyl)benzamide]	52%
Cc1ccc(S(=O)(=O)N(C)c2ccc(C(=O)Nc3ccc4c(c3)OCCO4)cc2)cc1 [I-938, N-(2,3-dihydrobenzo[b][1,4]dioxin-6-yl)-4-((N,4-dimethylphenyl)sulfonamido)benzamide]	51%
O=C(Nc1ccc2c(c1)OCO2)c1ccc(NS(=O)(=O)c2ccc(F)cc2)cc1 [I-939, N-(benzo[d][1,3]dioxol-5-yl)-4-((4-fluorophenyl)sulfonamido)benzamide]	50%
COc1ccc(NC(=O)c2ccc(NS(=O)(=O)c3ccc4c(c3)OCCO4)cc2)cc1 [I-941, 4-((2,3-dihydrobenzo[b][1,4]dioxine)-6-sulfonamido)-N-(4-methoxyphenyl)benzamide]	50%
Cc1ccc(NC(=O)c2ccc(NS(=O)(=O)c3ccc(Br)cc3)cc2)cc1S(=O)(=O)N(C)C [I-945, 4-((4-bromophenyl)sulfonamido)-N-(3-(N,N-dimethylsulfamoyl)-4-methylphenyl)benzamide]	44%
Cc1ccc(S(=O)(=O)N(C)c2ccc(C(=O)Nc3cccc(N4CCCC4=O)c3)cc2)cc1 [I-946, 4-((N,4-dimethylphenyl)sulfonamido)-N-(3-(2-oxopyrrolidin-1-yl)phenyl)benzamide]	44%
Cc1ccc(S(=O)(=O)N(C)c2ccc(C(=O)Nc3ccccc3OC(F)F)cc2)cc1 [I-947, N-(2-(difluoromethoxy)phenyl)-4-((N,4-dimethylphenyl)sulfonamido)benzamide]	43%
O=C(Nc1ccc(Br)cc1)c1ccc(NS(=O)(=O)c2ccc(F)c(F)c2)cc1 [I-948, N-(4-bromophenyl)-4-((3,4-difluorophenyl)sulfonamido)benzamide]	43%
Cc1cccc(NC(=O)c2ccc(NS(=O)(=O)c3ccc4c(c3)OCCO4)cc2)c1 [I-949, 4-((2,3-dihydrobenzo[b][1,4]dioxine)-6-sulfonamido)-N-(m-tolyl)benzamide]	42%
O=C(Nc1cccc(N2CCCC2=O)c1)c1ccc(NS(=O)(=O)c2ccccc2)cc1 [I-950, N-(3-(2-oxopyrrolidin-1-yl)phenyl)-4-(phenylsulfonamido)benzamide]	39%
Cc1ccc(NC(=O)c2ccc(NS(=O)(=O)c3ccc(F)cc3)cc2)c(C)c1 [I-951, N-(2,4-dimethylphenyl)-4-((4-fluorophenyl)sulfonamido)benzamide]	38%
O=C(Nc1ccc(OC(F)F)cc1)c1ccc(NS(=O)(=O)c2ccccc2)cc1 [I-952, N-(4-(difluoromethoxy)phenyl)-4-(phenylsulfonamido)benzamide]	36%
O=C(Nc1ccc2c(c1)OCO2)c1ccc(NS(=O)(=O)c2cccc(F)c2)cc1 [I-953, N-(benzo[d][1,3]dioxol-5-yl)-4-((3-fluorophenyl)sulfonamido)benzamide]	26%
COc1ccc(NC(=O)c2ccc(NS(=O)(=O)c3ccc(Cl)cc3F)cc2)cc1 [I-956, 4-((4-chloro-2-fluorophenyl)sulfonamido)-N-(4-methoxyphenyl)benzamide]	22%
COc1ccc(NC(=O)c2ccc(NS(=O)(=O)c3ccc(F)cc3)cc2)cc1OC [I-958, N-(3,4-dimethoxyphenyl)-4-((4-fluorophenyl)sulfonamido)benzamide]	19%
NS(=O)(=O)c1ccc(NC(=O)c2ccc(NS(=O)(=O)c3ccc(F)c(Cl)c3)cc2)cc1 [I-961, 4-((3-chloro-4-fluorophenyl)sulfonamido)-N-(4-sulfamoylphenyl)benzamide]	14%
CC(=O)Nc1ccc(NC(=O)c2ccc(NS(=O)(=O)c3ccc(Br)cc3)cc2)cc1 [I-963, N-(4-acetamidophenyl)-4-((4-bromophenyl)sulfonamido)benzamide]	10%
O=C(c1ccc(NS(=O)(=O)c2cc(Cl)ccc2Cl)cc1)N1CCc2ccccc21 [I-964, 2,5-dichloro-N-(4-(indoline-1-carbonyl)phenyl)benzenesulfonamide]	10%
O=C(c1ccc(NS(=O)(=O)c2ccc(F)cc2)cc1)N1CCc2ccccc21 [I-965, 4-fluoro-N-(4-(indoline-1-carbonyl)phenyl)benzenesulfonamide]	3%
O=C(Nc1ccc(S(=O)(=O)Nc2ccccc2Cl)cc1)c1ccc(C(F)(F)F)cc1 [I-971, N-(4-(N-(2-chlorophenyl)sulfamoyl)phenyl)-4-(trifluoromethyl)benzamide]	67%
O=C(Nc1ccc(S(=O)(=O)Nc2ccc(F)c(Cl)c2)cc1)c1cccc([N+](=O)[O-])c1 [I-972, N-(4-(N-(3-chloro-4-fluorophenyl)sulfamoyl)phenyl)-3-nitrobenzamide]	66%
